Test results from patent publication US20060240424A1, “Regulation of human p2y15 g protein-coupled receptor” (priority 2002, published 2006).
“And” between values parts separate entries of the source, which are not always exact repeats. Equal values may be shown once.

Tests used:
[1] = biological target: T1, P2Y15 GPCR (Homo sapiens, UniProt Q96P68); assay: Ca2+ flux assay (ligand screening) in stably transfected P2Y15 GPCR-expressing HEK293 cells; assay type: cell-based; settings: FIG. 2A, read-out: calcium response EC50
T1 construct: expressed in transfected cells
Description: (§1) Ligand screening was performed in a Ca^2+ flux assay as follows. Stably transfected P2Y15 GPCR-expressing cells were seeded into 96-well plates and incubated overnight at 37° C. in a tissue culture incubator. The culture medium was aspirated and replaced with […] of loading buffer containing 0.1% BSA, 20 mM HEPES, 1 mM probenecid, 0.01% pluronic F127, and 1 µM Fluo-3-AM (Molecular Probes, Eugene, Oreg.) in HBSS, and incubated for 1 hour at room temperature. The cells were then washed gently 3 times with wash buffer containing 0.1% BSA, 20 mM HEPES, 1 mM probenecid in HBSS. The washed cells were placed in an FDSS6000 functional drug screening system (Hamamatsu Photonics, Hamamatsu, Japan) and changes in cellular fluorescence were measured after adding serial dilutions of potential ligands. A panel of about 130 potential ligands was assembled by selecting known ligands of the GPCRs most closely related to P2Y15 GPCR as well as several naturally occurring chemical relatives of the ligands. The library included various bioactive lipids, eicosanoids, peptides, cannabinoids, chemokines, nucleosides, nucleotides and chemically related substances. The ligands were genereally purchased from either Sigma or R&D Systems.

[2] = tested on: nontransfected HEK293 cells; assay: Cyclic AMP production assay in nontransfected HEK293 cells; assay type: cell-based, human; settings: 10 μM forskolin
Description: (§2) The cells were then lysed and the cAMP produced was measured by a cAMP-specific ELISA. Concentrations of cAMP produced were calculated by comparing against cAMP standards measured simultaneously.

[3] = biological target: T2, P2Y15 (Homo sapiens, UniProt Q96P68); assay: Receptor binding assay (saturation binding) on P2Y15 stable transfectants; settings: whole cells, 4° C., 16 h; radiolabelled ligand
Description: 10^5 cells per well in 96-well plates were washed twice for 1 h with DMEM medium. […] After incubating at 4° C. for 16 h, the plates were centrifuged for 10 min at 1500 rpm and then scintillation measured on a TopCount automated scintillation counter. Binding of [^32P]-AMP was carried out under the same conditions except that instead of using SPA beads, at the end of the incubation, cells were washed three times by vacuum filtration and 100 μl scintillation fluid was added to the wells.

[4] = tested on: nontransfected HEK293 cells; assay: Competitive binding assay on nontransfected HEK293 cells; set-up: species or system human; settings: for antagonism of ^3H-AMP binding to nontransfected HEK293 cells: 10 μM ^3H-AMP
Description: Competitive binding experiments were carried out as follows: 10^5 cells per well in 96-well plates were washed twice for 1 h with DMEM medium. Then wheatgerm agglutinin SPA beads (Amersham) at 1 mg/well were added, followed 1 h later by 10 μM [^3H]-Adenosine or 10 μM [^3H]-AMP (Amersham), and increasing concentrations of unlabeled ligand in a constant volume of HBS: 10 mM Hepes, 130 mM NaCl, 5 mM KCl, 1 mM MgCl2, 1 mM CaCl2 and 1 g/l glucose (6 μl/well)). After incubating at 4° C. for 16 h, the plates were centrifuged for 10 min at 1500 rpm and then scintillation measured on a TopCount automated scintillation counter. Ki values were determined by non-linear regression using the program Prism (Graph Pad).

[5] = biological target: T2, P2Y15; assay: Cyclic AMP production assay in P2Y15-HEK293 stable transfectants; assay type: cell-based; set-up: expressed in transfected cells; settings: for effect of pertussis toxin pretreatment on cyclic AMP production in response to ligand: pretreatment two hours with 1 μM pertussis toxin; for cyclic AMP response to ligand alone: without forskolin
Description: as §2

[6] = biological target: T2, P2Y15; assay: Competitive binding assay on P2Y15 transfectants; set-up: expressed in transfected cells; settings: 10 μM ^3H-adenosine; FIG. 3D; read-out: Ki for blocking binding of ^3H-adenosine to transfectants
Description: Competitive binding experiments were carried out as follows: 10^5 cells per well in 96-well plates were washed twice for 1 h with DMEM medium. […] After incubating at 4° C. for 16 h, the plates were centrifuged for 10 min at 1500 rpm and then scintillation measured on a TopCount automated scintillation counter. Ki values were determined by non-linear regression using the program Prism (Graph Pad).

[7] = tested on: nontransfected HEK293 cells; assay: Ca2+ flux assay in nontransfected HEK293 cells (control); assay type: cell-based, human; settings: for calcium mobilization in response to nucleotide: both stable transfectants and nontransfected cells (endogenous P2Y1 and P2Y2)
[8] = biological target: T2, P2Y15; assay: Calcium mobilization assay in presence of adenosine receptor antagonists; assay type: cell-based; set-up: expressed in transfected cells; settings: for block of calcium mobilization induced by AMP and adenosine: FIG. 4, dose-dependent
Description: as §1

[9] = 10 M AMP (FIG. 4A legend), read-out: Ki for blocking calcium mobilization induced by AMP
[10] = Ki for blocking calcium mobilization induced by adenosine, 10 M adenosine (FIG. 4B legend)

Nc1ncnc2c1ncn2[C@@H]1O[C@H](COP(=O)(O)O)[C@@H](O)[C@H]1O [AMP, Adenosine 5′-monophosphate]
EC50 [1]: 920 nM
cyclic AMP generation in nontransfected HEK293 cells [2]: did not respond strongly
Kd [3]: 18600 nM and 18800 nM
antagonism of ^3H-AMP binding to nontransfected HEK293 cells [4]: neither AMP nor adenosine can antagonize
blocking ^3H-adenosine binding to nontransfected HEK293 cells ([4]; 10 μM ^3H-adenosine, FIG. 3D): little effect
EC50 ([5]; in the presence of 10 μM forskolin, 30 min, FIG. 2B, read-out: generation of cyclic AMP EC50): 214 nM
effect of pertussis toxin pretreatment on cyclic AMP production in response to ligand [5]: not affected
cyclic AMP response to ligand alone [5]: only minor responses barely above the detection limit
Ki [6]: 24600 nM

O=c1ccn([C@@H]2O[C@H](COP(=O)(O)OP(=O)(O)OP(=O)(O)O)[C@@H](O)[C@H]2O)c(=O)[nH]1 [UTP]
calcium mobilization in response to nucleotide [7]: mobilized calcium

Nc1ncnc2c1ncn2[C@@H]1O[C@H](COP(=O)(O)CP(=O)(O)O)[C@@H](O)[C@H]1O [AMP-CP, Adenosine 5′-(α,β-methylene)diphosphate]
block of calcium mobilization induced by AMP and adenosine [8]: effective in blocking

CC(C)Cn1c(=O)n(C)c(=O)c2[nH]cnc21 [IBMX, 3-isobutyl-1 methylxanthine]
block of calcium mobilization induced by AMP and adenosine [8]: able to block

Cn1c(=O)c2c(ncn2C)n(C)c1=O [caffeine]
Ki [8, 9]: 2700 nM
Ki [8, 10]: 26200 nM

Nc1ncnc2c1ncn2[C@@H]1O[C@H](CO)[C@@H](O)[C@H]1O [adenosine]
calcium mobilization response to adenosine in nontransfected cells ([7]; nontransfected HEK293, detected only at very high adenosine concentrations): very weak response
cyclic AMP generation in nontransfected HEK293 cells [2]: generated cyclic AMP
antagonism of ^3H-AMP binding to nontransfected HEK293 cells [4]: neither AMP nor adenosine can antagonize
effect of pertussis toxin pretreatment on cyclic AMP production in response to ligand [5]: not affected
cyclic AMP response to ligand alone [5]: only minor responses barely above the detection limit

Cn1c(=O)c2[nH]c(-c3ccccc3)nc2n(C)c1=O [8-phenyltheophylline, 8-Phenyltheophylline]
Ki [8, 9]: 250 nM
Ki [8, 10]: 260 nM

Cn1c(=O)c2[nH]cnc2n(C)c1=O [theophylline]
block of calcium mobilization induced by AMP and adenosine [8]: able to block

Nc1ncnc2c1ncn2[C@@H]1O[C@H](COP(=O)(O)OP(=O)(O)OP(=O)(O)O)[C@@H](O)[C@H]1O [ATP]
calcium mobilization in response to nucleotide [7]: mobilized calcium
